Experimental data: PMC10487437 (International Journal of Molecular Sciences, 2023)
Entries after “also recorded” stand apart in the source; their conditions may differ. Like-named read-outs stand apart in the source and are kept apart here. Square brackets hold non-standard residues; d marks the D form. Peptide text beside a SMILES is read from it. * marks the point of attachment. Nle = CCCC[C@H](N)C(=O)O; Cbz = O=C(OCc1ccccc1)*

How the values were obtained:
[1] = test system: 20S proteasome; experiment: 20S proteasome isolated from mouse brains, in 50 mM Tris-HCl, 1 mM EDTA, 1 mM DTT, 10% glycerol, pH = 7.5; conditions: 37 °C, up to 72 h
[2] = test system: 26S proteasome; experiment: 26S proteasome isolated from mouse brains, in Tris-HCl buffer pH = 7.5 with 5 mM ATP-MgCl2; conditions: 37 °C, up to 72 h
[3] = test system: 26S+11S; experiment: 26S proteasome with 11S regulator, both isolated from mouse brains, in Tris-HCl buffer pH = 7.5 with 5 mM ATP-MgCl2; conditions: 37 °C, up to 72 h
[4] = test system: 20S+11S; experiment: 20S proteasome with 11S regulator, both isolated from mouse brains, in Tris-HCl buffer pH = 7.5; conditions: 37 °C, up to 72 h
[5] = biological target: T1, 20S brain proteasome, chymotrypsin-like activity (Mus musculus, UniProt O09061+O55234); experiment: Inhibition of 20S brain proteasome hydrolysis of Suc-LLVY-AMC (chymotrypsin-like activity); type: biochemical; conditions: 20 mM Tris-HCl pH 7.5, 1 mM DTT, 1 mM EDTA; [20S] = 50 nM; [Suc-LLVY-AMC] = 50 µM
T1 construct: from tissue; host or cells: mouse brain
Excerpt: (§1) Figure 7 The dependence of 20S proteasome activity on marizomib concentration during hydrolysis of peptide fluorogenic substrates. (a) hydrolysis of model oligoglutamine substrates, Dabcyl-KQ5-PPDE-EDANS (Q5) or Dabcyl-KQ10-PPDE-EDANS (Q10). (b) hydrolysis of standard coumarine-modified peptide substrates. The experimental data are approximated by the function y = A1 + (A2 − A1)/(1 + 10^(LOGx0–x)p), where A1 and A2 are the minimum and maximum values of log10(Ci), respectively, LOGx0 is the logarithm of the EC50 (the concentration giving a response half-way between the upper and lower asymptotes), and p is the Hill coefficient.

[6] = biological target: T2, 20S brain proteasome, trypsin-like activity (Mus musculus, UniProt P70195+Q9R1P1); experiment: Inhibition of 20S brain proteasome hydrolysis of Ac-RLR-AMC (trypsin-like activity); type: biochemical; conditions: [20S] = 50 nM; for IC50: 20 mM Tris-HCl pH 7.5, 1 mM DTT, 1 mM EDTA, [Ac-RLR-AMC] = 50 µM
T2 construct: from tissue; host or cells: mouse brain
Excerpt: as §1

[7] = biological target: T3, 20S brain proteasome, caspase-like activity (Mus musculus, UniProt P70195+Q60692); experiment: Inhibition of 20S brain proteasome hydrolysis of Z-LLE-AMC (caspase-like activity); type: biochemical; conditions: [20S] = 50 nM; for IC50: 20 mM Tris-HCl pH 7.5, 1 mM DTT, 1 mM EDTA, [Z-LLE-AMC] = 50 µM
T3 construct: from tissue; host or cells: mouse brain
Excerpt: as §1

[8] = test system: T4, 20S brain proteasome; experiment: Inhibition of 20S brain proteasome hydrolysis of oligoglutamine-containing FRET substrates; type: biochemical, mouse; conditions: [20S] = 50 nM; for IC50: 20 mM Tris-HCl pH 7.5, 1 mM DTT, 1 mM EDTA
T4 construct: from tissue; host or cells: mouse brain
Excerpt: as §1

[9] = test system: T5, 20S proteasome from murine brain; experiment: Specific peptidase activity of 20S proteasome with additives (Table S1); type: biochemical, mouse; conditions: 20S plus additive: 0.5 µM Bortezomib, 0.1 µM MG132, 0.02% SDS or 11S (1:2, mole:mole); 20S alone 2.37 ± 0.13; means ± SEM of three independent experiments run in duplicate
T5 construct: from tissue; host or cells: mouse brain
Excerpt: Characterization of puriﬁed proteasomes
teasomes. […] To conﬁrm that
cathepsin B [48] (Table S1).
reaction mixture for both 20S and 26S.
Table S1. Peptidase activity of the samples of 20S and 26S proteasome from murine brain.
The molar ratio between the proteasome

[10] = fit of dose-response curve (Figure 7), substrate 50 µM
[11] = fit of dose-response curve (Figure 7)

IC50 [5] [nM]	IC50 [6] [nM]	IC50 [7] [nM]	Molecule	cleaved bond [1]	cleaved bond [2]	cleaved bond [3]	cleaved bond [4]	further results
–	–	–	Dabcyl-KQ5GD-EDANS	Q2-Q3, major; also recorded: Q4-Q5, major	Q2-Q3, major; also recorded: Q4-Q5, major	Q2-Q3, major; also recorded: Q4-Q5, major	Q2-Q3, major; also recorded: Q4-Q5, major	–
9.3 ± 1.5	111 ± 8	610 ± 40	C[C@@]12OC(=O)[C@]1([C@@H](O)[C@@H]1C=CCCC1)NC(=O)[C@@H]2CCCl [Marizomib]	–	–	–	–	Hill coefficient, inhibition of Ac-RLR-AMC hydrolysis [6, 10]: (−1.51); Hill coefficient, inhibition of Z-LLE-AMC hydrolysis [7, 10]: (−1.1); Hill coefficient, inhibition of Dabcyl-KQ5 PPD-EDANS hydrolysis [8, 11]: (−0.69); Hill coefficient, inhibition of Dabcyl-KQ10 PPD-EDANS hydrolysis [8, 11]: (−0.39); IC50 ([8]; substrate Dabcyl-KQ5 PPD-EDANS, read-out: IC50 of Dabcyl-KQ5 PPD-EDANS hydrolysis by 20S brain proteasome): 323 ± 15 nM; IC50 ([8]; substrate Dabcyl-KQ10 PPD-EDANS, read-out: IC50 of Dabcyl-KQ10 PPD-EDANS hydrolysis by 20S brain proteasome): 480 ± 20 nM
–	–	–	Dabcyl-KQ10PPD-EDANS	Q3-Q4, major, 2 h; also recorded: Q2-Q3, major, 2 h	Q2-Q3, major; also recorded: Q3-Q4, major	Q2-Q3, major; also recorded: Q3-Q4, major	Q2-Q3, major; also recorded: Q3-Q4, major	–
100000 ± 10000	> 150000	5100 ± 300	CCCC[C@H](NC(=O)[C@@H]1CCCN1C(=O)OCc1ccccc1)C(=O)N[C@H](C=O)CC(=O)O [Z-P-nLeu-D-CHO] (Cbz-Pro-[Nle]-Asp-aldehyde)	–	–	–	–	–

Molecule	IC50 [5] [nM]	IC50 [6] [nM]	IC50 [7] [nM]	cleaved bond [1]	cleaved bond [2]	cleaved bond [3]	cleaved bond [4]	further results
CC(C)C[C@@H](C=O)NC(=O)[C@H](CC(C)C)NC(=O)[C@H](CC(C)C)NC(=O)OCc1ccccc1 [Z-LLL-CHO (MG132)] (Cbz-Leu-Leu-Leu-aldehyde)	12 ± 3	2800 ± 300	155 ± 5	–	–	–	–	Specific peptidase activity using Suc-LLVY-AMC [9]: 0.093 ± 0.003 nM/min/µg; IC50 ([8]; substrate Dabcyl-KQ5 PPD-EDANS, n.d. = not detected, read-out: IC50 of Dabcyl-KQ5 PPD-EDANS hydrolysis by 20S brain proteasome): 50000 ± 6000 nM; IC50 ([8]; substrate Dabcyl-KQ10 PPD-EDANS, n.d. = not detected, read-out: IC50 of Dabcyl-KQ10 PPD-EDANS hydrolysis by 20S brain proteasome): 72000 ± 8000 nM
